Reference: ChEMBL document CHEMBL5727262, “Tricyclic compound and JAK inhibitor” (2019)

Assays:
[1] = biological target: Non-receptor tyrosine-protein kinase TYK2 (Homo sapiens, UniProt P29597); test: (§1) Enzyme Assay: The JAK inhibitory activities of compounds of the present invention were measured.The enzymes (JAK1, JAK2, JAK3 and Tyk2) were purchased from Carna Biosciences, Inc.As the substrate for the enzymes (hereinafter referred to as the substrate), LANCE Ultra ULight-JAK-1 (Tyr1023) Peptide (manufactured by PerkinElmer Co., Ltd.) was used.As the antibody for detecting phosphorylation of the substrate, LANCE Ultra Europium-anti-phospho tyrosine antibody (PT66) (manufactured by PerkinElmer Co., Ltd.) was used.The other reagents are purchased from the following suppliers.Adenosine triphosphate (ATP): Sigma-Aldrich4-(2-Hydroxyethyl)-1-piperazineethanesulfonic acid (HEPES): DOJINDO LABORATORIESGlycol ether diamine tetraacetic acid (EGTA): DOJINDO LABORATORIESMagnesium chloride (MgCl2): Wako Pure Chemical Industries, Ltd.Dithiothreitol (DTT): Wako Pure Chemical Industries, Ltd.Tween 20: Sigma-AldrichEthylenediaminetetraacetic acid (EDTA): DOJINDO LABORATORIESThe compounds of the present invention, the enzymes (JAK1, JAK2, JAK3 and Tyk2), the substrate and ATP were used for the assays after diluted with the assay buffer.The composition of the assay buffer is given below.HEPES (pH7.5): 50 mMEGTA: 1 mMMgCl2: 10 mMDTT: 2 mMTween 20: 0.01% (wt/wt)Dilutions were made at such concentrations and dispensed on a well plate, which will be described later, in such volumes that the following final concentrations would be achieved on the well plate. The enzyme concentrations and the ATP concentrations in the respective enzyme (JAK1, JAK2, JAK3 and Tyk2) assays were as follows.JAK1 enzyme assay; the enzyme concentration was 0.5 μg/mL, and the ATP concentration was 70 μM.JAK2 enzyme assay; the enzyme concentration was 0.013 μg/mL, and the ATP concentration was 10 μM.JAK3 enzyme assay; the enzyme concentration was 0.020 μg/mL, and the ATP concentration was 3 μM.Tyk2 enzyme assay; the enzyme concentration was 0.25 μg/mL and the ATP concentration was 20 μM.The concentration of the substrate for the enzymes was 25 nM.The concentration of EDTA was 15 mM.The concentration of PT66 was 2 nM.
[2] = biological target: Tyrosine-protein kinase JAK1 (Homo sapiens, UniProt P23458); test: as §1
[3] = biological target: T1, Tyrosine-protein kinase JAK3 (Homo sapiens, UniProt P52333); test: as §1
T1 sequence (P52333 whole entry): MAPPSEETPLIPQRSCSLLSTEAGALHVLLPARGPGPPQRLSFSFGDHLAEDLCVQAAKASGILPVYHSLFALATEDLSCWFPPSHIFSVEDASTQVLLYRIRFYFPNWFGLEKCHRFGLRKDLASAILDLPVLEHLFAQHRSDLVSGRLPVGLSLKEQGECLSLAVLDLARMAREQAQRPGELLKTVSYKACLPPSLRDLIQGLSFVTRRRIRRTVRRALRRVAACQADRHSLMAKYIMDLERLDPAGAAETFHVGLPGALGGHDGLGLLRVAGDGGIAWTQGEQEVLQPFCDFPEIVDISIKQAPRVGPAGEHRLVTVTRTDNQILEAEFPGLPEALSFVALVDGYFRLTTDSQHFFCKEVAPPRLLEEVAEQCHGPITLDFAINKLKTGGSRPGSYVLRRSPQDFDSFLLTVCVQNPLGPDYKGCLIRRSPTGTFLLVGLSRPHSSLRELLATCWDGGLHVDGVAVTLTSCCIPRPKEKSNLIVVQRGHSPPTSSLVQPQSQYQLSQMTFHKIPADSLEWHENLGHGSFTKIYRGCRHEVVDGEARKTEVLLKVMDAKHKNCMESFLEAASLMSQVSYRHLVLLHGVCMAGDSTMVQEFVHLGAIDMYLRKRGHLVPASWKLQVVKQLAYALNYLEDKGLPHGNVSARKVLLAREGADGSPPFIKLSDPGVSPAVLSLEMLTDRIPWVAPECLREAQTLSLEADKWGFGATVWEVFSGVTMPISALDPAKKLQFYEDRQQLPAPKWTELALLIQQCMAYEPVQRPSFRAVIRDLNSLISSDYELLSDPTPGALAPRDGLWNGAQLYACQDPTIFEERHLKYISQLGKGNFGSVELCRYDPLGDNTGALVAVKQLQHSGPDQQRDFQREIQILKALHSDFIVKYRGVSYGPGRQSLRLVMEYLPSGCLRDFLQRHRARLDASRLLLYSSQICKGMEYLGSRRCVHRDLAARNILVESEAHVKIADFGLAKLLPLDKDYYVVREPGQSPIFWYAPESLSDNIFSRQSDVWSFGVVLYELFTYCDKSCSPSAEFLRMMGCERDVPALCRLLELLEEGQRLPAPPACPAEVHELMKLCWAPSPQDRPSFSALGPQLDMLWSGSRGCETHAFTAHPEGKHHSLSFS

[4] = biological target: Tyrosine-protein kinase JAK2 (Homo sapiens, UniProt O60674); test: as §1, with “plate.” for “plate. The enzyme concentrations and the ATP concentrations in the respective enzyme (JAK1, JAK2, JAK3 and Tyk2) assays were as follows.JAK1 enzyme assay; the enzyme concentration was 0.5 μg/mL, and the ATP concentration was 70 μM.JAK2 enzyme assay; the enzyme concentration was 0.013 μg/mL, and the ATP concentration was 10 μM.JAK3 enzyme assay; the enzyme concentration was 0.020 μg/mL, and the ATP concentration was 3 μM.Tyk2 enzyme assay; the enzyme concentration was 0.25 μg/mL and the ATP concentration was 20 μM.The concentration of the substrate for the enzymes was 25 nM.The concentration of EDTA was 15 mM.The concentration of PT66 was 2 nM.”
Sequence of Tyrosine-protein kinase JAK2 (O60674 whole entry): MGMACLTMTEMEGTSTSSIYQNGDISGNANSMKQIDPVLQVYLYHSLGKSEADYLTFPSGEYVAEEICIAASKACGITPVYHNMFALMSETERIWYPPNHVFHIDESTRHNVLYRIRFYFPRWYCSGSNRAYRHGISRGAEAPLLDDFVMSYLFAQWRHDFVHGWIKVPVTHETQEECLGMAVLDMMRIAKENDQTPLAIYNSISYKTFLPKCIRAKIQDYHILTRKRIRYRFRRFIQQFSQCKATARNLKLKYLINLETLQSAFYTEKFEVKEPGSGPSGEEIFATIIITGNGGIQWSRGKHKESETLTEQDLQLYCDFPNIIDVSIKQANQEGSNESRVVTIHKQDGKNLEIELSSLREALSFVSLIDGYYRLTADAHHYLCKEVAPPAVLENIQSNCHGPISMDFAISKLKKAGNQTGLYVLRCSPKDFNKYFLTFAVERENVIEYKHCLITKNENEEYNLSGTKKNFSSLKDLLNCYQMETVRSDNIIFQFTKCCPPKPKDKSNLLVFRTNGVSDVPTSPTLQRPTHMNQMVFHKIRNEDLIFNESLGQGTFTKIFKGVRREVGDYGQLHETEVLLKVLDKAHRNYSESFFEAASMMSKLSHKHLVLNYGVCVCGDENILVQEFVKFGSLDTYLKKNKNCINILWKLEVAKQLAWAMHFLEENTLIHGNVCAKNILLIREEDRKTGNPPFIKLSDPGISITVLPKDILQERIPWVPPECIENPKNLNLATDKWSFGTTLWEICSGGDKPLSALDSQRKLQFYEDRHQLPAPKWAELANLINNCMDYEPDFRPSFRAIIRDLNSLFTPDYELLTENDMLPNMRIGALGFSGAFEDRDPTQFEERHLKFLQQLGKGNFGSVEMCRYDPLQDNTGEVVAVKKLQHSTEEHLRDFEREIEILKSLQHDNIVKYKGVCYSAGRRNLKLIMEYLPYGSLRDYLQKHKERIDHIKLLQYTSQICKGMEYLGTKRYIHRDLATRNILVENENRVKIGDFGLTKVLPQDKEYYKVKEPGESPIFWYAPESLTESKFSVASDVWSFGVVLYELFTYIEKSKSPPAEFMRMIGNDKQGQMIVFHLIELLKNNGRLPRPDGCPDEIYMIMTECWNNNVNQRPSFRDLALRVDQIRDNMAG

Sequence of Non-receptor tyrosine-protein kinase TYK2 (P29597 whole entry): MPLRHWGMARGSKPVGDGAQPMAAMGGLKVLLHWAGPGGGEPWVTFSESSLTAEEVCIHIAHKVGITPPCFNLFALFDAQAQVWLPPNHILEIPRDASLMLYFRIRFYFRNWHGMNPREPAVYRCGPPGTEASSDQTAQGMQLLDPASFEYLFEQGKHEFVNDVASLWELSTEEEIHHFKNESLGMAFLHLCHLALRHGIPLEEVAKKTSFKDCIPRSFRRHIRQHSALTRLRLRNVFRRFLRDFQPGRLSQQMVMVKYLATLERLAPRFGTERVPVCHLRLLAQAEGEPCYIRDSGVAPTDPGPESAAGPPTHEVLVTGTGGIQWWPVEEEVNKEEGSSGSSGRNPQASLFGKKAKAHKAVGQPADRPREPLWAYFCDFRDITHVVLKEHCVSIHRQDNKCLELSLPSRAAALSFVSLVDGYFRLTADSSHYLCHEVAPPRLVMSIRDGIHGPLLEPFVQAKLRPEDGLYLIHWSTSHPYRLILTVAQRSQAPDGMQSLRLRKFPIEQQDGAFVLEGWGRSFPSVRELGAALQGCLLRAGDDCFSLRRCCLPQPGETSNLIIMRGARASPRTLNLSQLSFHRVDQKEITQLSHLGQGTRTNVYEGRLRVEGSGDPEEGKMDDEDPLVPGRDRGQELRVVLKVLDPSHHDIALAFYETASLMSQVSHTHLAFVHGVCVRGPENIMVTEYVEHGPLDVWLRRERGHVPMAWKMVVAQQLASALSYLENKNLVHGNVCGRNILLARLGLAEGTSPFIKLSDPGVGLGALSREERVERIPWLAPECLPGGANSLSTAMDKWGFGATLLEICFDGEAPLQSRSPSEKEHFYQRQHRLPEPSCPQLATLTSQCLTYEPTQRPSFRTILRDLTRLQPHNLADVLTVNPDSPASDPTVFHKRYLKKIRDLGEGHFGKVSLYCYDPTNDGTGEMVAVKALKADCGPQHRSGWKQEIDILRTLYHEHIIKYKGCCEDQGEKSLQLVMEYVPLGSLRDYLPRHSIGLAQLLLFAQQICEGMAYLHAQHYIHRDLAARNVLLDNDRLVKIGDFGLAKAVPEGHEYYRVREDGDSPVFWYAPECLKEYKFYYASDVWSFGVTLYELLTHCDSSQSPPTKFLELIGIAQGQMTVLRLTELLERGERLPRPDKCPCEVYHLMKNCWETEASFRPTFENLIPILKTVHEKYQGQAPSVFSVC
Sequence of Tyrosine-protein kinase JAK1 (P23458 whole entry): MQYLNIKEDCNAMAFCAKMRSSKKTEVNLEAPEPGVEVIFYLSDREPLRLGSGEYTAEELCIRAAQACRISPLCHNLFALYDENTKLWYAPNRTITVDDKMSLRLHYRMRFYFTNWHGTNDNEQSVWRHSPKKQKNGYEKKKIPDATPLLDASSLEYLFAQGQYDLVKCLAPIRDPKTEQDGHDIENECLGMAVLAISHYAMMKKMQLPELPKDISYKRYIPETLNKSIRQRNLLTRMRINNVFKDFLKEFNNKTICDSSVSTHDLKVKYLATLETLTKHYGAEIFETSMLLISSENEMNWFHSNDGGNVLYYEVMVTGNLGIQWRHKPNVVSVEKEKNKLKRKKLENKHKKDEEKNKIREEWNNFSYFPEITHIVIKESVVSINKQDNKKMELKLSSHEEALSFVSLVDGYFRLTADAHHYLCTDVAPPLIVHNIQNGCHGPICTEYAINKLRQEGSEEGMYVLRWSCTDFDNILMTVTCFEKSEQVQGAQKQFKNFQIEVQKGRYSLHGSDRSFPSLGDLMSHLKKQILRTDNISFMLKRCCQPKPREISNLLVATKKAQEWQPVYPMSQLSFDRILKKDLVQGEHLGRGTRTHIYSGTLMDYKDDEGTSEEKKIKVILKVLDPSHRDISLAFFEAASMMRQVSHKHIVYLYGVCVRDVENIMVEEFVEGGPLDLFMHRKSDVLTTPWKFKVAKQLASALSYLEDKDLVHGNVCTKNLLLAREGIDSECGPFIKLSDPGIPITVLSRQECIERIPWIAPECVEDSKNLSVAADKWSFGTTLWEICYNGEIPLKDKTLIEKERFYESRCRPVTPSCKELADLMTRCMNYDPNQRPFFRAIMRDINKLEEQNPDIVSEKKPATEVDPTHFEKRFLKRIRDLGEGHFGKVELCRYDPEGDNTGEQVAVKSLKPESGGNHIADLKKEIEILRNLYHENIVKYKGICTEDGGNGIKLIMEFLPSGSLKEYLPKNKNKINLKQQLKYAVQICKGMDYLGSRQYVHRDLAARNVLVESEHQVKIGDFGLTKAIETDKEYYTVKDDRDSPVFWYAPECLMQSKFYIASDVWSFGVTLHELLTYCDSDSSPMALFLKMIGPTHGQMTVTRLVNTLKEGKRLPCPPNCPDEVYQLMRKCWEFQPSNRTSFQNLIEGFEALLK

| IC50 [1] | IC50 [2] | IC50 [3] | IC50 [4] | Compound |
| --- | --- | --- | --- | --- |
| 19 nM | 0.68 nM | 2.5 nM | 1.6 nM | O=C1C=CN(C2CCC(COCCC(F)(F)F)CC2)C2c3cc[nH]c3N=CC12 (stereo not drawn) |
| 26 nM | 0.35 nM | 2.9 nM | 1.5 nM | O=C1NC(=O)[C@@H](C2CCC(COCCC(F)(F)F)CC2)C2c3cc[nH]c3N=CC12 (stereo partly drawn) |
| 10 nM | 0.59 nM | 2.7 nM |  | O=C1C=CN(C2CCC(COCC(F)(F)F)CC2)C2c3cc[nH]c3N=CC12 (stereo not drawn) |
| 39 nM | 0.41 nM | 7.1 nM | 1.9 nM | Cc1cnn(CC2CCC(N3C=CC(=O)C4C=Nc5[nH]ccc5C43)CC2)c1 (stereo not drawn) |
| 18 nM | 1.7 nM | 10 nM | 5.1 nM | N#CC[C@@H](NCC1CCC(N2C=CC(=O)C3C=Nc4[nH]ccc4C32)CC1)C(F)(F)F (stereo partly drawn) |
| 11 nM | 0.74 nM | 5.1 nM | 2 nM | N#CC[C@H](OCC1CCC(N2C=CC(=O)C3C=Nc4[nH]ccc4C32)CC1)C(F)(F)F (stereo partly drawn) |
